Laboratory results taken from patent US11299518B2, “Fusion respiratory syncytial virus inhibitors and use thereof” (priority 2016, dated 2022).
Bridge positions count the residues as written; N and C are the ends. Square brackets hold non-standard residues; d marks the D form. Peptide text beside a SMILES is read from it. tBuAla = CC(C)(C)C[C@H](N)C(=O)O; Cha = N[C@@H](CC1CCCCC1)C(=O)O; Chg = N[C@H](C(=O)O)C1CCCCC1; R5 = C=CCCC[C@@](C)(N)C(=O)O; S5 = C=CCCC[C@](C)(N)C(=O)O

Tests used:
RSV-mCherry = format: cell-based, HRSV
Procedure: The inhibitory activity of the peptides of the invention was assessed in HEp-2 cells as described below:
A mCherry-expressing virus recently developed (Rameix-Welti et al., 2014, Nat. Commun., 5:5104) was used to avoid the cumbersome manipulations required with the GFP-expressing virus.
HEp-2 cells were seeded at 5×10^4 cells per well in 96 wells plate the day before the infection. Peptides were 2-fold serially diluted in DMSO (11 dilutions), then further diluted in MEM medium and pre-incubated for 15-20 minutes with 0.2 MOI of RSV-mCherry (Rameix-Welti et al., 2014, supra). Following the washing of Hep-2 cells with MEM without phenol red medium, the cells were incubated with the virus/peptide mixtures for a period of 1 h30-2 h. The cells were washed and further incubated in MEM media containing fetal bovine serum and the same concentration of peptide that was used during the infection step. Plates were incubated 48 h at 37° C. and the mCherry fluorescence was measured using a spectrofluorometer (Tecan infinite M200PRO) with excitation and emission wavelengths of 580 and 620 nm, respectively (expressed in relative fluorescence units RFU). Non-infected HEp-2 cells were used as standards for fluorescence background levels. Each experiment was performed in duplicate and repeated at least twice.

[1] = CD spectroscopy, percentage of helicity; format: physicochemical; conditions: CD at 222 nm, 10 mM phosphate buffer pH 7.5, 50 μM peptide, 25° C.
Procedure: The secondary structure of the peptides was then characterized by circular dichroism (DC) as described below.
The circular dichroism spectra were acquired on a Jasco J-810 and on a Chirascan spectropolarimeter. The samples were prepared in 10 mM phosphate buffer, pH 7.5, at a peptide concentration of 50 μM. Data were recorded at 25° C. by stepscan from 180 nm to 260 nm in a 0.1 cm pathlength quartz cell using 0.2 nm wavelength increments, 1 nm bandwidth and a response time of 0.5 sec. Each spectrum was an average of three measurements and was subtracted from buffer baseline. The data were converted to per residue molar ellipticity units [θ] (deg·cm2·dmol−1·residue−1) and smoothed using the Igor software. The percentage of helicity was calculated as it follows:
[formula] whereby CD222=molar ellipticity at 222 nm in [mdeg], N=number of amino acids in the peptide and C=peptide molar concentration [mol/l].

circular dichroism = conditions: 10 mM phosphate; pH 7.5; 25 °C; 50 uM

CC[C@H](C)[C@H](NC(=O)[C@H](Cc1ccccc1)NC(=O)[C@H](C)NC(=O)[C@H](CC(C)C)NC(=O)[C@H](CO)NC(=O)[C@H](CCC(N)=O)NC(=O)[C@H](CCC(=O)O)NC(C)=O)C(=O)N[C@@H](CCCNC(=N)N)C(=O)N[C@@H](CCCCN)C(=O)N[C@@H](CO)C(=O)N[C@@H](CC(=O)O)C(=O)N[C@@]1(C)CCCC=CCCC[C@@](C)(C(=O)N[C@H](C(N)=O)C(C)C)NC(=O)[C@H](Cc2c[nH]cn2)NC(=O)[C@H](CC(C)C)NC(=O)[C@H](CC(C)C)NC1=O [Peptide 3c, reference compound] (Ac-EQSLAFIRKSD[S5]LLH[S5]V-NH2; staple 12-16)
inhibitory activity in HEp-2 cells (RSV-mCherry; RSV-mCherry): inactive

CC[C@H](C)[C@@H]1NC(=O)[C@H](Cc2ccccc2)NC(=O)[C@@](C)(NC(=O)[C@@H](NC(=O)[C@H](CO)NC(=O)[C@]2(C)CCCC=CCCC[C@@](C)(NC(=O)[C@H](CCC(=O)O)NC(C)=O)C(=O)N[C@@H]([C@@H](C)CC)C(=O)N[C@@H](CC(N)=O)C(=O)N2)C2CCCCC2)CCCC=CCCC[C@@](C)(C(=O)N[C@@H](CO)C(=O)N[C@@H](CC(=O)O)C(=O)N[C@@H](CCC(=O)O)C(=O)N[C@@H](CC(C)C)C(=O)N[C@@H](CC(C)C)C(=O)N[C@@H](Cc2c[nH]cn2)C(=O)N[C@@H](CC(N)=O)C(=O)N[C@H](C(N)=O)C(C)C)NC(=O)[C@H](CCCNC(=N)N)NC1=O [Peptide 4ca-var3] (Ac-E[R5]IN[S5]S[Chg][S5]FIR[S5]SDELLHNV-NH2; staple 2-5, 8-12)
% helicity [1]: 91.4%
helicity (circular dichroism): 91.4%

CC[C@H](C)[C@@H]1NC(=O)[C@H](Cc2ccccc2)NC(=O)[C@@](C)(NC(=O)[C@H](CC(C)C)NC(=O)[C@H](CO)NC(=O)[C@]2(C)CCCC=CCCC[C@@](C)(NC(=O)[C@H](CCC(=O)O)NC(C)=O)C(=O)N[C@@H]([C@@H](C)CC)C(=O)N[C@@H](CC(N)=O)C(=O)N2)CCCC=CCCC[C@@](C)(C(=O)N[C@@H](CO)C(=O)N[C@@H](CC(=O)O)C(=O)N[C@@H](CCC(=O)O)C(=O)N[C@@H](CC(C)(C)C)C(=O)N[C@@H](CC(C)C)C(=O)N[C@@H](Cc2c[nH]cn2)C(=O)N[C@@H](CC(N)=O)C(=O)N[C@H](C(N)=O)C(C)C)NC(=O)[C@H](CCCNC(=N)N)NC1=O [Peptide 4ca-var4, E Xaa2 IN Xaa5 SL Xaa8 FIR Xaa12 SDE Xaa16LHNV] (Ac-E[R5]IN[S5]SL[S5]FIR[S5]SDE[tBuAla]LHNV-NH2; staple 2-5, 8-12)
EC50 (RSV-mCherry; HEp-2 cells, 0.2 MOI RSV-mCherry, 48 h): 0.2 ± 0.05 µM
% helicity [1]: 98.4%
helicity (circular dichroism): 98.4%

CC[C@H](C)[C@@H]1NC(=O)[C@H](Cc2ccccc2)NC(=O)[C@@](C)(NC(=O)[C@H](CC(C)C)NC(=O)[C@H](CO)NC(=O)[C@]2(C)CCCC=CCCC[C@@](C)(NC(=O)[C@H](CCC(=O)O)NC(C)=O)C(=O)N[C@@H]([C@@H](C)CC)C(=O)N[C@@H](CCCCN)C(=O)N2)CCCC=CCCC[C@@](C)(C(=O)N[C@@H](CO)C(=O)N[C@@H](CC(=O)O)C(=O)N[C@@H](CCC(=O)O)C(=O)N[C@@H](CC(C)(C)C)C(=O)N[C@@H](CC(C)C)C(=O)N[C@@H](Cc2c[nH]cn2)C(=O)N[C@@H](CC(N)=O)C(=O)N[C@H](C(N)=O)C(C)C)NC(=O)[C@H](CCCNC(=N)N)NC1=O [Peptide 4ca-var5, E Xaa2 IK Xaa5 SL Xaa8 FIR Xaa12 SDE Xaa16LHNV] (Ac-E[R5]IK[S5]SL[S5]FIR[S5]SDE[tBuAla]LHNV-NH2; staple 2-5, 8-12)
% helicity [1]: 82.3%
helicity (circular dichroism): 82.3%

CC[C@H](C)[C@@H]1NC(=O)[C@H](Cc2ccccc2)NC(=O)[C@@](C)(NC(=O)[C@H](CC(C)C)NC(=O)[C@H](CO)NC(=O)[C@]2(C)CCCC=CCCC[C@@](C)(NC(=O)[C@H](CCC(=O)O)NC(C)=O)C(=O)N[C@@H]([C@@H](C)CC)C(=O)N[C@@H](CCCNC(=N)N)C(=O)N2)CCCC=CCCC[C@@](C)(C(=O)N[C@@H](CO)C(=O)N[C@@H](CC(=O)O)C(=O)N[C@@H](CCC(=O)O)C(=O)N[C@@H](CC(C)(C)C)C(=O)N[C@@H](CC(C)C)C(=O)N[C@@H](Cc2c[nH]cn2)C(=O)N[C@@H](CC(N)=O)C(=O)N[C@H](C(N)=O)C(C)C)NC(=O)[C@H](CCCNC(=N)N)NC1=O [Peptide 4ca-var6, E Xaa2 IR Xaa5 SL Xaa8 FIR Xaa12 SDE Xaa16LHNV] (Ac-E[R5]IR[S5]SL[S5]FIR[S5]SDE[tBuAla]LHNV-NH2; staple 2-5, 8-12)
% helicity [1]: 85.6%
helicity (circular dichroism): 85.6%

CC[C@H](C)[C@@H]1NC(=O)[C@H](Cc2ccccc2)NC(=O)[C@@](C)(NC(=O)[C@H](CC(C)C)NC(=O)[C@H](CO)NC(=O)[C@]2(C)CCCC=CCCC[C@@](C)(NC(=O)[C@H](CCC(=O)O)NC(C)=O)C(=O)N[C@@H]([C@@H](C)CC)C(=O)N[C@@H](CC(N)=O)C(=O)N2)CCCC=CCCC[C@@](C)(C(=O)N[C@@H](CO)C(=O)N[C@@H](CC(=O)O)C(=O)N[C@@H](CCC(=O)O)C(=O)N[C@@H](CC2CCCCC2)C(=O)N[C@@H](CC(C)C)C(=O)N[C@@H](Cc2c[nH]cn2)C(=O)N[C@@H](CC(N)=O)C(=O)N[C@H](C(N)=O)C(C)C)NC(=O)[C@H](CCCNC(=N)N)NC1=O [Peptide 4ca-var7, E Xaa2 IN Xaa5 SL Xaa8 FIR Xaa12 SDE Xaa16LHNV] (Ac-E[R5]IN[S5]SL[S5]FIR[S5]SDE[Cha]LHNV-NH2; staple 2-5, 8-12)
% helicity [1]: 91.4%
helicity (circular dichroism): 91.4%

CC[C@H](C)[C@@H]1NC(=O)[C@H](Cc2ccccc2)NC(=O)[C@@](C)(NC(=O)[C@H](CC(C)C)NC(=O)[C@H](CO)NC(=O)[C@]2(C)CCCC=CCCC[C@@](C)(NC(=O)[C@H](CCC(=O)O)NC(C)=O)C(=O)N[C@@H]([C@@H](C)CC)C(=O)N[C@@H](CC(N)=O)C(=O)N2)CCCC=CCCC[C@@](C)(C(=O)N[C@@H](CO)C(=O)N[C@@H](CC(=O)O)C(=O)N[C@@H](CCC(=O)O)C(=O)N[C@@H](CC(C)(C)C)C(=O)N[C@@H](CC(C)C)C(=O)N[C@@H](Cc2c[nH]cn2)C(N)=O)NC(=O)[C@H](CCCNC(=N)N)NC1=O [Peptide 4ca-var8, E Xaa2 IN Xaa5 SL Xaa8 FIR Xaa12 SDE Xaa16LH] (Ac-E[R5]IN[S5]SL[S5]FIR[S5]SDE[tBuAla]LH-NH2; staple 2-5, 8-12)
% helicity [1]: 75.8%
helicity (circular dichroism): 75.8%
